# According to US20140212800A1, “ELECTROPHOTOGRAPHIC PHOTOSENSITIVE MEMBER, PROCESS CARTRIDGE AND ELECTROPHOTOGRAPHIC APPARATUS” (CANON KABUSHIKI KAISHA, priority 2013, published 2014):
# Test: Solubility of the charge transporting substance in 100 g of first / second solvent
# Type: physicochemical
# Details: 23° C., 1 atmosphere; for Solubility Y1: in 100 g of toluene (first solvent)
# Protocol: The charge transporting layer satisfying the expressions (4-1) to (4-5) is formed by drying a coat of a charge-transporting-layer coating liquid containing the charge transporting substance, the binder resin, and the following first solvent and second solvent. Additionally, when the solubility of the charge transporting substance in 100 g of the first solvent in an environment at 23° C. under 1 atmosphere is designated as Y1(g), and the solubility of the charge transporting substance in 100 g of the second solvent in an environment at 23° C. under 1 atmosphere is designated as Y2(g), solubility Y1 and solubility Y2 satisfy the following expression (6).
# Each of electrophotographic photosensitive members was produced in the same manner as in Example 1 except that the charge transporting substance represented by the formula (CTM-2), polyester resin A having the structural unit represented by the formula (1-18) and o-xylene in Example 1 were changed as shown in Table 1.
SMILES,Solubility Y1,Solubility Y2 (in 100 g of acetophenone (second solvent)),Solubility Y2 (in 100 g of methyl benzoate (second solvent))
Cc1ccc(N(C=C(c2ccccc2)c2ccccc2)c2ccc(-c3ccc(N(C=C(c4ccccc4)c4ccccc4)c4ccc(C)cc4C)cc3)cc2)c(C)c1 [CTM-3],25 g,–,–
C(/C=C/c1cccc(N(c2ccccc2)c2ccc(-c3ccc(N(c4ccccc4)c4cccc(/C=C/C=C/c5ccccc5)c4)cc3)cc2)c1)=C\c1ccccc1 [CTM-2],20 g,8 g,8 g
